From ChEMBL document CHEMBL5120829, “Discovery and structural optimization of potent epidermal growth factor receptor (EGFR) inhibitors against L858R/T790M/C797S resistance mutation for lung cancer treatment” (Eur J Med Chem, 2022)

Columns and labels:
[1] = tested on: Epidermal growth factor receptor (Homo sapiens), P00533 [L858R,T790M,C797S]; experiment: Inhibition of EGFR L858R/T790M/C797S mutant (unknown origin) at 0.5 uM relative to control
[2] = tested on: Epidermal growth factor receptor (Homo sapiens), P00533 [L858R,T790M,C797S]; experiment: Inhibition of EGFR L858R/T790M/C797S mutant (unknown origin) at 1 uM relative to control
[3] = biological target: Epidermal growth factor receptor (Homo sapiens, UniProt P00533, C797S/L858R/T790M); experiment: Inhibition of EGFR L858R/T790M/C797S mutant (unknown origin)
PC-9 [4] = experiment: Antiproliferative activity against human PC-9 cells expressing EGFR L858R/T790M/C797S mutant assessed as inhibition of cell growth incubated for 72 hrs by CCK-8 assay; assay type: functional, cell-based; details: PC-9, 72 h
A-431 = experiment: Antiproliferative activity against human A-431 cells assessed as inhibition of cell growth incubated for 72 hrs by CCK-8 assay; assay type: functional, cell-based; details: A-431, 72 h
A549 = experiment: Antiproliferative activity against human A549 cells assessed as inhibition of cell growth incubated for 72 hrs by CCK-8 assay; assay type: functional, cell-based; details: A549, 72 h
PC-9 [5] = experiment: Induction of apoptosis in human PC-9 cells expressing EGFR L858R/T790M/C797S mutant assessed as viable cells at 0.25 uM incubated for 24 hrs by annexin-V/propidium iodide staining-based flow cytometry analysis (reference value: 99.1 %); assay type: functional
PC-9 [6] = experiment: Induction of apoptosis in human PC-9 cells expressing EGFR L858R/T790M/C797S mutant assessed as early apoptotic cells at 0.25 uM incubated for 24 hrs by annexin-V/propidium iodide staining-based flow cytometry analysis (reference value: 0.3 %); assay type: functional
PC-9 [7] = experiment: Induction of apoptosis in human PC-9 cells expressing EGFR L858R/T790M/C797S mutant assessed as late apoptotic cells at 0.25 uM incubated for 24 hrs by annexin-V/propidium iodide staining-based flow cytometry analysis (reference value: 0.14 %); assay type: functional
PC-9 [8] = experiment: Induction of apoptosis in human PC-9 cells expressing EGFR L858R/T790M/C797S mutant assessed as dead cells at 0.25 uM incubated for 24 hrs by annexin-V/propidium iodide staining-based flow cytometry analysis (reference value: 0.43 %); assay type: functional

Sequence of Epidermal growth factor receptor (P00533 25-1210 T790M/C797S/L858R limits assumed): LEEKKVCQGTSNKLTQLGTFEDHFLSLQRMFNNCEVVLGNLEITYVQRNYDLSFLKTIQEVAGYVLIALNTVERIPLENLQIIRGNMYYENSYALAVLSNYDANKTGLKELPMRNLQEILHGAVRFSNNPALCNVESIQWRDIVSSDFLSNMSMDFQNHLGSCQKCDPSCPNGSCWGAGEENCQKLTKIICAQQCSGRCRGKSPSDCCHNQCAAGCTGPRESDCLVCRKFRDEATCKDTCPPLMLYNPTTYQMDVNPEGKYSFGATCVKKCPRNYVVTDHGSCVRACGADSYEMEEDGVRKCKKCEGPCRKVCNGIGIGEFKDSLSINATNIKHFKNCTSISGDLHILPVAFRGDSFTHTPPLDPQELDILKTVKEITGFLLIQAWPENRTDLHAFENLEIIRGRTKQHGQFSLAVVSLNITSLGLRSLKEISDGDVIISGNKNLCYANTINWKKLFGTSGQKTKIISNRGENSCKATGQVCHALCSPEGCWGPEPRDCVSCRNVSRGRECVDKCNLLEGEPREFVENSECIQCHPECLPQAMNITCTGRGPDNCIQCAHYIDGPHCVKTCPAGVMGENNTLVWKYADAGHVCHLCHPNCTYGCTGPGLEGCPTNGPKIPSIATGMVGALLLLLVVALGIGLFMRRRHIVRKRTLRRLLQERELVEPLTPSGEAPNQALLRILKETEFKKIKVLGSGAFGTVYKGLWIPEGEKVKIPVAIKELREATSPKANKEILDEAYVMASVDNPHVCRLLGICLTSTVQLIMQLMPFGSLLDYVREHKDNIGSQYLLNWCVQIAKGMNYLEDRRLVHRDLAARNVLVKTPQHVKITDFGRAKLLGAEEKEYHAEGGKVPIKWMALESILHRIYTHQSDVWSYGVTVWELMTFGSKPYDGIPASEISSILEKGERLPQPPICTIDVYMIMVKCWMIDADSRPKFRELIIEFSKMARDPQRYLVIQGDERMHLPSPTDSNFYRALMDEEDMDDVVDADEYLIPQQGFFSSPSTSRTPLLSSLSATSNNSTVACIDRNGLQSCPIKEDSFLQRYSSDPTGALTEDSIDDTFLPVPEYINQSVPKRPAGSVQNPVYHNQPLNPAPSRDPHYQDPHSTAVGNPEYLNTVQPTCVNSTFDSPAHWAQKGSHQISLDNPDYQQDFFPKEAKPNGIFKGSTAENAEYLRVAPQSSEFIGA
Sequence of Epidermal growth factor receptor (Homo sapiens), P00533 [L858R,T790M,C797S] (P00533 whole entry T790M/C797S/L858R): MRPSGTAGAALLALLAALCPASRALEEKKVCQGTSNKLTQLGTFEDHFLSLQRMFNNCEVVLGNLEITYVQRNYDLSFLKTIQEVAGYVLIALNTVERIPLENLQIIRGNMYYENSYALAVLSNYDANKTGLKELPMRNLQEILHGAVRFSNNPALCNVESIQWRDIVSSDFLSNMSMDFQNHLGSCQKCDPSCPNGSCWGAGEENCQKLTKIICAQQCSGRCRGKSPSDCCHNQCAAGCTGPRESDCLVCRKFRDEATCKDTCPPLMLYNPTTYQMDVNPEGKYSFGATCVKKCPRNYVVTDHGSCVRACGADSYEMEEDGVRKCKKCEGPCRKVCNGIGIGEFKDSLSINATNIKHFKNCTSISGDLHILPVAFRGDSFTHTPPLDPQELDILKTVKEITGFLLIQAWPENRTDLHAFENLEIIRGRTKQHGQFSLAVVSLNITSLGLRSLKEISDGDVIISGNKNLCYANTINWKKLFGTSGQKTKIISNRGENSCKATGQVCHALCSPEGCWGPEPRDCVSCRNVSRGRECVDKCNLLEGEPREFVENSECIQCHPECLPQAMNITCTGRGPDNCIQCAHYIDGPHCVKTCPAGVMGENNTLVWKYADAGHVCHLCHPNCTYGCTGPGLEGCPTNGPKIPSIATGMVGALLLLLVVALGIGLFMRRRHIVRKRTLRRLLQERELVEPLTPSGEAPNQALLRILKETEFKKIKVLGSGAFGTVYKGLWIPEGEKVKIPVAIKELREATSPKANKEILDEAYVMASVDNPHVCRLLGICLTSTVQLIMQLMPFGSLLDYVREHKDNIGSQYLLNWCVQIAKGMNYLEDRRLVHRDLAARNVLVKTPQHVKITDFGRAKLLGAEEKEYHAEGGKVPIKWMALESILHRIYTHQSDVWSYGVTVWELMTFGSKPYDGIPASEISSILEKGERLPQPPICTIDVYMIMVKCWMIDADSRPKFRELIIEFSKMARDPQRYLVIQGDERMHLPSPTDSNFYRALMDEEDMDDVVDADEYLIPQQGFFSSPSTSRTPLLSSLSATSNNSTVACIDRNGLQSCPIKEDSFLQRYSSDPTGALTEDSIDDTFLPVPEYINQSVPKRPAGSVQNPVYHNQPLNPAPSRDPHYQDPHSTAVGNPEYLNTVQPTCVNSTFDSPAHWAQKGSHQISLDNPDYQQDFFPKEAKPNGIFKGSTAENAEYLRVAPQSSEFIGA

SMILES	inhibition [1] [%]	inhibition [2] [%]	other results
C=CC(=O)Nc1cc(Nc2ncc3cc(C(=O)Nc4cccc(C#N)c4)n(C4CCCC4)c3n2)c(OC)cc1N(C)CCN(C)C	3.7	3	
C=CC(=O)Nc1cc(Nc2ncc3cc(C(=O)Nc4ccccc4)n(C4CCCC4)c3n2)c(OC)cc1N1CCN(C)CC1	23	23	
C=CC(=O)Nc1cc(Nc2ncc3cc(C(=O)Nc4ccc(OC)c(OC)c4)n(C4CCCC4)c3n2)c(OC)cc1N(C)CCN(C)C	7.3	8.7	
COc1cc(N2CCC(N3CCN(C)CC3)CC2)ccc1Nc1ncc2cc(CNc3ccccc3)n(C3CCCC3)c2n1	78	82	IC50 [3]: 55 nM; IC50 (PC-9 [4]): 206 nM; IC50 (A-431): 3150 nM; IC50 (A549): 2980 nM
C=CC(=O)Nc1cc(Nc2ncc3cc(C(=O)Nc4ccc5c(c4)OCO5)n(C4CCCC4)c3n2)c(OC)cc1N(C)CCN(C)C	0.5	13	
C=CC(=O)Nc1cc(Nc2ncc3cc(CNc4cc(C)cc(C)c4)n(C4CCCC4)c3n2)c(OC)cc1N(C)CCN(C)C	-1.4	-8.4	
C=CC(=O)Nc1cc(Nc2ncc3cc(C(=O)Nc4ccccc4)n(C4CCCC4)c3n2)c(OC)cc1N(C)CCN(C)C	18	26	
C=CC(=O)Nc1cc(Nc2ncc3cc(C(=O)Nc4cccc(C(F)(F)F)c4)n(C4CCCC4)c3n2)c(OC)cc1N(C)CCN(C)C	4.7	10	
C=CC(=O)Nc1cc(Nc2ncc3cc(C(=O)Nc4ccnc(OC)c4)n(C4CCCC4)c3n2)c(OC)cc1N(C)CCN(C)C	-2.6	4.1	
C=CC(=O)Nc1cc(Nc2ncc3cc(C(=O)Nc4cccc(OC)c4)n(C4CCCC4)c3n2)c(OC)cc1N1CCOCC1	1.4	3.2	
C=CC(=O)Nc1cc(Nc2ncc3cc(C(=O)Nc4cccc(O)c4)n(C4CCCC4)c3n2)c(OC)cc1N(C)CCN(C)C	5.2	22	
C=CC(=O)Nc1cc(Nc2ncc3cc(C(=O)Nc4cccc(OC)c4)n(C4CCCC4)c3n2)c(OC)cc1N1CCC(N(C)C)CC1	15	16	
C=CC(=O)Nc1cc(Nc2ncc3cc(C(=O)Nc4cccc(OC)c4)n(C)c3n2)c(OC)cc1N(C)CCN(C)C	-5	-1.3	
C=CC(=O)Nc1cc(Nc2ncc3cc(C(=O)Nc4ccnc(C)c4)n(C4CCCC4)c3n2)c(OC)cc1N(C)CCN(C)C	-10	8.3	
C=CC(=O)Nc1cc(Nc2ncc3cc(C(=O)NC4CCCc5ccccc54)n(C4CCCC4)c3n2)c(OC)cc1N(C)CCN(C)C (stereo not drawn)	13	23	
CN(C)CCN(C)c1ccc(Nc2ncc3cc(CNc4ccccc4)n(C4CCCC4)c3n2)cc1	88	90	IC50 [3]: 304 nM; IC50 (PC-9 [4]): 248 nM; IC50 (A-431): 1120 nM; IC50 (A549): 426 nM
C=CC(=O)Nc1cc(Nc2ncc3cc(C(=O)Nc4cccc(OC)c4)n(C4CC4)c3n2)c(OC)cc1N(C)CCN(C)C	7	7.8	
C=CC(=O)Nc1cc(Nc2ncc3cc(C(=O)Nc4cc(OC)c(OC)c(OC)c4)n(C4CCCC4)c3n2)c(OC)cc1N(C)CCN(C)C	3.1	5.3	
C=CC(=O)Nc1cc(Nc2ncc3cc(C(=O)Nc4cccc(OC(F)(F)F)c4)n(C4CCCC4)c3n2)c(OC)cc1N(C)CCN(C)C	-1.9	0.6	

SMILES	inhibition [1] [%]	inhibition [2] [%]	other results
C=CC(=O)Nc1cc(Nc2ncc3cc(C(=O)Nc4cccc(C)c4)n(C4CCCC4)c3n2)c(OC)cc1N(C)CCN(C)C	6.7	14	
C=CC(=O)Nc1cc(Nc2ncc3cc(CNc4c(C)cccc4C)n(C4CCCC4)c3n2)c(OC)cc1N(C)CCN(C)C	23	40	
C=CC(=O)Nc1cc(Nc2ncc3cc(C(=O)Nc4ccccc4)n(C4CCCC4)c3n2)ccc1N1CCN(C)CC1	21	37	
C=CC(=O)Nc1cc(Nc2ncc3cc(C(=O)Nc4cccc(OC)c4)n(C4CCCCC4)c3n2)c(OC)cc1N(C)CCN(C)C	1.1	4.9	
C=CC(=O)Nc1cc(Nc2nccc(-c3cn(C)c4ccccc34)n2)c(OC)cc1N(C)CCN(C)C [OSIMERTINIB]			IC50 (PC-9 [4]): 3250 nM; IC50 (A-431): […]; IC50 (A549): 784 nM; Activity (PC-9 [5]): 90.3%; Activity (PC-9 [6]): 3.83%; Activity (PC-9 [7]): 4.75%; Activity (PC-9 [8]): 1.1%
C=CC(=O)Nc1cc(Nc2ncc3cc(C(=O)Nc4ccccc4OC)n(C4CCCC4)c3n2)c(OC)cc1N(C)CCN(C)C	7.5	18	
C=CC(=O)Nc1cc(Nc2ncc3cc(C(=O)Nc4cccc(OC)c4)n(C4CCCC4)c3n2)c(OC)cc1N(C)CCN(C)C	11	17	
C=CC(=O)Nc1cc(Nc2ncc3cc(C(=O)Nc4ccccc4)n(C4CCCC4)c3n2)c(OC)cc1N1CCN(C(C)C)CC1	18	21	
C=CC(=O)Nc1cc(Nc2ncc3cc(C(=O)Nc4ccc(F)c(Cl)c4)n(C4CCCC4)c3n2)c(OC)cc1N(C)CCN(C)C	8.1	10	
C=CC(=O)Nc1cc(Nc2ncc3cc(CNc4cccc(C)c4)n(C4CCCC4)c3n2)c(OC)cc1N(C)CCN(C)C	48	61	
C=CC(=O)Nc1cc(Nc2ncc3cc(C(=O)Nc4cccc(N(C)C)c4)n(C4CCCC4)c3n2)c(OC)cc1N(C)CCN(C)C	12	16	
C=CC(=O)Nc1cc(Nc2ncc3cc(C(=O)Nc4ccccc4)n(C4CCCC4)c3n2)c(OC)cc1N1CCC(N2CCN(C)CC2)CC1	16	20	
C=CC(=O)Nc1cc(Nc2ncc3cc(C(=O)Nc4cccc(OC)c4)n(-c4ccccc4)c3n2)c(OC)cc1N(C)CCN(C)C	4.1	6	
C=CC(=O)Nc1cc(Nc2ncc3cc(C(=O)NC4CCCCC4)n(C4CCCC4)c3n2)c(OC)cc1N(C)CCN(C)C	4.8	6.5	
COc1cc(N2CCC(N(C)C)CC2)ccc1Nc1ncc2cc(CNc3ccccc3)n(C3CCCC3)c2n1	80	83	IC50 [3]: 10 nM; IC50 (PC-9 [4]): 261 nM; IC50 (A-431): 3080 nM; IC50 (A549): 1630 nM
C=CC(=O)Nc1cc(Nc2ncc3cc(C(=O)Nc4cccc(OC)c4)n(C(C)C)c3n2)c(OC)cc1N(C)CCN(C)C	9.3	12	
C=CC(=O)Nc1cc(Nc2ncc3cc(CNc4cccc(OC)c4)n(C4CCCC4)c3n2)c(OC)cc1N(C)CCN(C)C	41	56	
C=CC(=O)Nc1cc(Nc2ncc3cc(C(=O)Nc4cccc(OC)c4)n(C4CCCC4)c3n2)c(OC)cc1N1CCN(CCOC)CC1	-2.3	-0.3	
C=CC(=O)Nc1cc(Nc2ncc3cc(C(=O)Nc4ccc(OC)cc4)[nH]c3n2)c(OC)cc1N(C)CCN(C)C	2.8	9.5	
